Like-named read-outs stand apart in the source and are kept apart here.
What was measured:
hBD-2 [1] = type: cell-based, human; settings: skin explant, systemic, 3 µg/ml, 2 h and 15 h, in words
Description: (§1) Il est connu de WO 97/45101 que les esters d'α-alkylglucoside peuvent être utilisés comme agent anti-microbien et/ou anti-fongique pour agir en tant que conservateur dans une composition, pour la préserver d'un développement microbien. D'autre part, les propriétés moussantes des esters de méthyl glucose sont décrites dans Desai et al (« Sofw Journal Seife, Oele, Fette, Wachse, Verlag für chemische Industrie » 1991). • Modèle cellulaire : lignée cellulaire HaCat, kératynocytes d'origine humaine, primoculture de kératinocytes humains • Modèle tissulaire : • Explants de peau normale provenant de déchet opératoire de chirurgie esthétique • Explants de gencive normale provenant de déchet opératoire de chirurgie implantatoire ou d'épithélium gingival reconstruit à partir de cellules épithéliales orales primaires • ➢ Les cellules HaCat sont ensemencées et cultivées en plaque 6 puits à 200 000 cellules/puits sous un volume de 2 ml de milieu de culture DMEM 1640 : (Ref: Invitrogen) complémenté par 10 % de sérum de veau foetal (SVF, Ref : CH30160.02 Perbio-Hyclone) pendant 18 h (sur la nuit). • ➢ A T0 les cellules sont lavées avec du tampon Phosphate (PBS, Ref: 52100-039 Invitrogen) puis privées en sérum pour les rendre quiescentes pendant 24 h (ralentissement de leur croissance et élimination de toute trace de facteurs susceptibles de perturber les effets induits par les traitements ultérieurs). • ➢ A T0+24 h les cellules sont traitées par des cytokines pro-inflammatoires (TNF-α à 10 ng/ml, IL1-β à 10 ng/ml) ou des éléments bactériens (LPS à 50 ng/ml, SEB à 100 ng/ml) ou des actifs potentiels de type « alkyle mono- ou di-ester d'α,β-butylglucoside » dilués dans du DMEM (1 ml/puits); La durée du traitement est de 3 h à 37°C. • ➢ Les kératinocytes primaires sont préparés à partir de peau normale provenant de déchet opératoire de chirurgie esthétique. Ils sont ensemencés et cultivés en plaque 24 puits à 60 000 cellules/puits sous un volume de 0,5 ml de milieu de culture KSFM (Ref : 37010 Invitrogen) complémenté par de l'EGF (Epidermal Growth Factor) à 1,5 ng/ml et du BPE (bovine pituitary extract) à 25 µg/ml pendant 24 h. • ➢ A J0, le milieu est remplacé par 0,5 ml de milieu KSFM complet, additionné de 1,2 nM de calcium. • ➢ A J+3, les cellules sont traitées par des cytokines pro-inflammatoires TNF-α et IL 1-β à 10 ng/ml ou des actifs potentiels de type « alkyle mono- ou di-ester d'α,β-butylglucoside » dilués dans 0,3 ml de milieu KSFM complet, en présence de 1,2 nM de calcium. […]

S. aureus = assay: Adhesion of S. aureus on skin explant (modified Franz cell), count of adherent bacteria; type: cell-based, Staphylococcus aureus; settings: topical 30 µg/ml
Description: Pour révéler le complexe Antigène-Anticorps, le kit DAKO LSAB® (DAKO Corporation) est utilisé selon les recommandations du fournisseur. La révélation est réalisée à l'aide d'un substrat de la péroxydase : la 3,3'diaminobenzidine (DAB) (DAKO Corporation). La réaction enzymatique est révélée par une coloration brune. • ➢L'adhésion des micro-organismes est réalisée dans une cellule à double compartimentation, de type cellule de Franz modifiée. • ➢Une suspension de S.aureus (CIP 53.154) équivalente à 0,5.10^7 micro-organismes est introduite au sein du compartiment supérieur de la cellule. Le dispositif est incubé de 2 h à 37°C sous une atmosphère à 5 % de CO2. A la fin de cette période d'incubation, le surnageant est retiré afin d'éliminer les bactéries non adhérentes. Les échantillons de peau sont ensuite rincés deux fois avec 1 ml de mélange DMEM/HAMF12. Un dénombrement bactérien à l'issue de cette étape donne la proportion de bactéries ayant adhéré à l'explant (T+2 h). Un témoin est réalisé dans le but de déterminer l'adhésion non spécifique des bactéries. • ➢La stimulation de l'expression des β-défensines cutanées précède l'étape d'adhésion. Son objectif est d'étudier l'impact de l'induction des peptides antimicrobiens par des actifs potentiels de type « alkyle mono- ou di-ester d'α,β-butylglucoside » sur l'adhésion de souches bactériennes. Le traitement est effectué en topique ou en systémique. Le temps de stimulation des explants cutanés est de 24 h à 37°C en présence de 5 % de CO2.
Pour analyse, les explants sont retirés de leur cellule, des punchs de diamètres différents (3 mm, 4 mm et 6 mm) sont effectués pour un test MTT de survie, les marquages immuno-histologiques et les analyses des transcrits par RT-PCR. Le reste de peau est utilisé pour une estimation de la flore bactérienne adhérente.
Le dénombrement de la flore bactérienne adhérente exogène par unité de surface de peau a été effectué selon deux méthodes : • par dénombrement bactérien sur milieu solide • par comptage de la radioactivité émise (la souche contaminante étant marquée au H^3) est effectuée. […]
Après une application topique de 5 h et plusieurs rinçages de la surface épidermique d'un explant cutané, l'effet du traitement par l'α,β-LBG brut sur l'adhésion de S.aureus sur ce même explant a été quantifié par le dénombrement des germes adhérents à l'issue d'une mise en contact de 2 h. […]
Après application topique et plusieurs rinçages de la surface épidermique des explants cutanés, l'effet du traitement par les isoformes de l'ester de laurate de butylglucoside pur à 90 %, séparées, α seul, β seul, ou en mélange α,β-LBG (56 % α/44 % β) sur l'adhésion de S. aureus sur l'épiderme a été comparé après quantification des germes adhérents par dénombrement.

hBD-2 [2] = assay: cells; type: cell-based, human; settings: HaCat; for induction de la synthèse du peptide hBD-2: starting materials of the enzymatic synthesis, in words
Description: as §1, with “esthétique.” for “esthétique. Ils sont ensemencés et cultivés en plaque 24 puits à 60 000 cellules/puits sous un volume de 0,5 ml de milieu de culture KSFM (Ref : 37010 Invitrogen) complémenté par de l'EGF (Epidermal Growth Factor) à 1,5 ng/ml et du BPE (bovine pituitary extract) à 25 µg/ml pendant 24 h. • ➢ A J0, le milieu est remplacé par 0,5 ml de milieu KSFM complet, additionné de 1,2 nM de calcium. • ➢ A J+3, les cellules sont traitées par des cytokines pro-inflammatoires TNF-α et IL 1-β à 10 ng/ml ou des actifs potentiels de type « alkyle mono- ou di-ester d'α,β-butylglucoside » dilués dans 0,3 ml de milieu KSFM complet, en présence de 1,2 nM de calcium.”
La méthode de RT-PCR quantitative utilisée est décrite dans le matériel et méthode. […]

laurate de butylglucoside [αβ-LBG pur]
induction de l'expression du gène hBD-2 (hBD-2 [1]): potentiel inducteur significatif surtout après une durée de traitement longue
baisse moyenne de l'adhésion de S. aureus (S. aureus; LBG pur à 90 %, vs untreated control): ~19%

CCCCCCCCCCCC(=O)O [Acide Laurique]
induction de la synthèse du peptide hBD-2 (hBD-2 [2]): ne provoquent pas une induction
fold induction at 10 µg/mL (hBD-2 [2]; Homo sapiens, hBD-2 mRNA, 3 h, 10 µg/ml, vs unstimulated control, read-out: Facteur d'induction (FI)): 1.1

laurate de butylglucoside [α-LBG pur]
induction de l'expression du gène hBD-2 (hBD-2 [1]; listed as α-LBG pure): ne présente pas d'activité

αβ-butylglucoside
induction de la synthèse du peptide hBD-2 (hBD-2 [2]): ne provoquent pas une induction

laurate de butylglucoside [β-LBG pur]
limitation de l'adhésion de S. aureus (S. aureus; comparison of isoforms, in words): en moyenne plus actif sur la limitation de l'adhésion de S. aureus que l'isoforme α-LBG
